We go through 26 compounds from patent US10167276B2, “Compounds and methods for inhibiting JAK” (Dizal (Jiangsu) Pharmaceutical Co., Ltd., priority 2015, dated 2019).

In this test the test system is STAT3 phosphorylation in NCI-H1975 cells. The test can be described thus: Cellular pSTAT3 assay in NCI-H1975 cells. The following applies: Homo sapiens, 2 hours with compound. The test is classed as cell-based. On the procedure: NCI-H1975 cells were plated onto Costar #3701 96 or 384 well tissue-culture treated plates at 5,000 cells/well in 30 uL medium (RPMI, 10% FBS, supplemented with L-glutamine) and incubated overnight at 37° C. in 5% CO2. Phospho STAT3 signal was quantitated utilizing Cell Signaling Technology #7146B Pathscan […] STAT3 antibody pair kit, following manufacturer's instructions.
Cells were dosed with compound and incubated at 37° C. in 5% CO2 for 2 hours, after which medium and compound were aspirated and cells lysed with 35 uL cold 1×Cell Signaling Lysis buffer and chilled at 4° C. for 1-2 hours. Lysate was incubated on STAT3 capture plates at 4° C. overnight, washed 3× with Tris-Buffered Saline with 0.05% Tween® 20 (TBST), then […] STAT3 detection antibody was applied for 2 hours. Following washing with TBST (3×), HRP-secondary antibody was applied for 2 hours. After additional washing, signal was detected using TMB and Stop solution and read at 450 nm using Tecan Infinite M100.

For `COC[C@@H](C(=O)Nc1cccc2c(-c3nc(Nc4cn(C)nc4C)ncc3F)c[nH]c12)N1CCN(C)CC1` [Example 54, (2S)-N-{3-[2-[(1,3-dimethyl-1H-pyrazol-4-yl)amino]-5-fluoropyrimidin-4-yl}-1H-indol-7-yl)-3-methoxy-2-(4-methylpiperazin-1-yl)propanamide], the IC50 is above 3000 nM.

For the compound `CCn1cc(Nc2ncc(C)c(-c3c[nH]c4c(NC(=O)[C@@H](C)N5CCN(C)CC5)cccc34)n2)c(OC)n1` [Example 58, (2R)-N-(3-{2-[(1-ethyl-3-methoxy-1H-pyrazol-4-yl)amino]-5-methylpyrimidin-4-yl}-1H-indol-7-yl)-2-(4-methylpiperazin-1-yl)propanamide], the IC50 is 106 nM.

For `CC[C@H](C(=O)Nc1cccc2c(-c3ccnc(Nc4cn(C)nc4OC)n3)c[nH]c12)N1CCN(C)CC1` [Example 47, (2R)-N-(3-{2-[(3-Methoxy-1-methyl-1H-pyrazol-4-yl)amino]pyrimidin-4-yl}-1H-indol-7-yl)-2-(4-methylpiperazin-1-yl)butanamide], the IC50 amounted to 136 nM.

As to `COC[C@@H](C(=O)Nc1cccc2c(-c3ccnc(Nc4cn(C)nc4OC)n3)c[nH]c12)N1CCN(C)CC1` [Example 61, (2S)-3-Methoxy-N-(3-{2-[(3-methoxy-1-methyl-1H-pyrazol-4-yl)amino]pyrimidin-4-yl}-1H-indol-7-yl}-2-(4-methylpiperazin-1-yl)propanamide], the IC50 is 1270 nM.

For `CCOc1nn(C)cc1Nc1ncc(Cl)c(-c2c[nH]c3c(NC(=O)[C@@H](C)N4CCN(C)CC4)cccc23)n1` [Example 40, (2R)-N-(3-{5-chloro-2-[(3-ethoxy-1-methyl-1H-pyrazol-4-yl)amino]pyrimidin-4-yl}-1H-indol-7-yl)-2-(4-methylpiperazin-1-yl)propanamide], the IC50 is 160 nM.

`Cc1nn(C)cc1Nc1nccc(-c2c[nH]c3c(NC(=O)[C@@H](C)N4CCN(C)CC4)cccc23)n1` [Example 57, (2R)-N-(3-{2-[(1,3-dimethyl-1H-pyrazol-4-yl)amino]pyrimidin-4-yl}-1H-indol-7-yl)-2-(4-methylpiperaizn-1-yl)propanamide]: the IC50 is 155 nM.

Regarding `CC[C@@H](C(=O)Nc1cccc2c(-c3nc(Nc4cn(C)nc4C)ncc3F)c[nH]c12)N1CCN(C)CC1` [Example 50, (2S)-N-{3-[2-[(1,3-dimethyl-1H-pyrazol-4-yl)amino]-5-fluoropyrimidin-4-yl}-1H-indol-7-yl)-2-(4-methylpiperazin-1-yl)butanamide], the IC50 was 999 nM.

For `Cc1cnc(Nc2cn(C)nc2C)nc1-c1c[nH]c2c(NC(=O)[C@H](C)N3CCN(C)CC3)cccc12` [Example 42, (2S)-N-(3-{2-[(1,3-dimethyl-1H-pyrazol-4-yl)amino]-5-methylpyrimidin-4-yl}-1H-indol-7-yl)-2-(4-methylpiperazin-1-yl)propanamide], the IC50 came to 172 nM.

Regarding `CCOc1nn(CC)cc1Nc1ncc(C)c(-c2c[nH]c3c(NC(=O)[C@@H](C)N4CCN(C)CC4)cccc23)n1` [Example 59, (2R)-N-(3-{2-[(3-ethoxy-1-ethyl-1H-pyrazol-4-yl)amino]-5-methylpyrimidin-4-yl}-1H-indol-7-yl)-2-(4-methylpiperazin-1-yl)propanamide], the IC50 was 245 nM.

As for `COC[C@H](C(=O)Nc1cccc2c(-c3nc(Nc4cn(C)nc4C)ncc3F)c[nH]c12)N1CCN(C)CC1` [Example 53, (2R)-N-(3-{2-[(1,3-dimethyl-1H-pyrazol-4-yl)amino]-5-fluoropyrimidin-4-yl}-1H-indol-7-yl)-3-methoxy-2-(4-methylpiperazin-1-yl)propanamide], the IC50 is 56.6 nM.

As for `CCOc1nn(C)cc1Nc1ncc(C)c(-c2c[nH]c3c(NC(=O)[C@H](C)N4CCN(C)[C@@H](C)C4)cccc23)n1` [Example 31b, (2S)-2-[(3S)-3,4-dimethylpiperazin-1-yl]-N-(3-{2-[(3-ethoxy-1-methyl-1H-pyrazol-4-yl)amino]-5-methylpyrimidin-4-yl}-1H-indol-7-yl)propanamide], the IC50 was 330 nM.

On to `CCOc1nn(C)cc1Nc1ncc(C)c(-c2c[nH]c3c(NC(=O)[C@@H](C)N4CCN(C)CC4)cccc23)n1` [Example 35, (2R)-N-(3-{2-[(3-ethoxy-1-methyl-1H-pyrazol-4-yl)amino]-5-methylpyrimidin-4-yl}-1H-indol-7-yl)-2-(4-methylpiperazin-1-yl)propanamide], for which the half-inhibitory concentration (IC50) came to 153 nM.

Regarding `CCOc1nn(C)cc1Nc1ncc(F)c(-c2c[nH]c3c(NC(=O)[C@@H](C)N4CCN(C)C[C@H]4C)cccc23)n1` [Example 12, (2R)-2-[(2R)-2,4-dimethylpiperazin-1-yl]-N-(3-{2-[(3-ethoxy-1-methyl-1H-pyrazol-4-yl)amino]-5-fluoropyrimidin-4-yl}-1H-indol-7-yl)propanamide], the IC50 is 246 nM.

Turning to `COc1nn(C)cc1Nc1ncc(Cl)c(-c2c[nH]c3c(NC(=O)[C@@H](C)N4CCN(C)CC4)cccc23)n1` [Example 36, (2R)-N-(3-{5-chloro-2-[(3-methoxy-1-methyl-1H-pyrazol-4-yl)amino]pyrimidin-4-yl}-1H-indol-7-yl)-2-(4-methylpiperazin-1-yl)propanamide], the IC50 came out at 57.9 nM.

Regarding `COc1nn(C)cc1Nc1nccc(-c2c[nH]c3c(NC(=O)[C@@H](C)N4CCN(C)C[C@H]4C)cccc23)n1` [Example 29, (2R)-2-[(2R)-2,4-dimethylpiperazin-1-yl]-N-(3-{2-[(3-methoxy-1-methyl-1H-pyrazol-4-yl)amino]pyrimidin-4-yl}-1H-indol-7-yl)propanamide], the IC50 is 227 nM.

With `COc1nn(C)cc1Nc1ncc(F)c(-c2c[nH]c3c(NC(=O)[C@H](C)N4CCN(C)C[C@@H]4C)cccc23)n1` [Example 7b, (2S)-2-[(3S)-2,4-dimethylpiperazin-1-yl]-N-(3-{5-fluoro-2-[(3-methoxy-1-methyl-1H-pyrazol-4-yl)amino]pyrimidin-4-yl}-1H-indol-7-yl)propanamide], the IC50 is above 3000 nM.

As for `COc1nn(C)cc1Nc1ncc(C)c(-c2c[nH]c3c(NC(=O)[C@@H](C)N4CCN(C)CC4)cccc23)n1` [Example 34, (2R)-N-(3-{2-[(3-Methoxy-1-methyl-1H-pyrazol-4-yl)amino]-5-methylpyrimidin-4-yl}-1H-indol-7-yl)-2-(4-methylpiperazin-1-yl)propanamide], the IC50 came out at 128 nM.

Regarding `Cc1nn(C)cc1Nc1ncc(F)c(-c2c[nH]c3c(NC(=O)[C@@H](C)N4CCN(C)CC4)cccc23)n1` [Example 56, (2R)-N-(3-{2-[(1,3-dimethyl-1H-pyrazol-4-yl)amino]-5-fluoropyrimidin-4-yl}-1H-indol-7-yl)-2-(4-methylpiperaizn-1-yl)propanamide], the IC50 was 126 nM.

Consider `COc1nn(C)cc1Nc1ncc(F)c(-c2c[nH]c3c(NC(=O)[C@@H](C)N4CCN(C)[C@@H](C)C4)cccc23)n1` [Example 5, (2R)-2-[(3S)-3,4-dimethylpiperazin-1-yl]-N-(3-{5-fluoro-2-[(3-methoxy-1-methyl-1H-pyrazol-4-yl)amino]pyrimidin-4-yl}-1H-indol-7-yl)propanamide], for which the IC50 was 87.2 nM.

Consider `CCN1CCN([C@H](C)C(=O)Nc2cccc3c(-c4nc(Nc5cn(C)nc5OC)ncc4F)c[nH]c23)CC1` [Example 4, (2R)-2-(4-ethylpiperazin-1-yl)-N-(3-{5-fluoro-2-[(3-methoxy-1-methyl-1H-pyrazol-4-yl)amino]pyrimidin-4-yl}-1H-indol-7-yl)propanamide], for which the IC50 was found to be 98.6 nM.

Take `CC[C@H](C(=O)Nc1cccc2c(-c3nc(Nc4cn(C)nc4OC)ncc3F)c[nH]c12)N1CCN(C)CC1` [Example 51, (2R)-N-(3-{5-fluoro-2-[(3-methoxy-1-methyl-1H-pyrazol-4-yl)amino]pyrimidin-4-yl}-1H-indol-7-yl)-2-(4-methylpiperazin-1-yl)butanamide]: the IC50 was determined as 111 nM.

`COc1nn(C)cc1Nc1ncc(F)c(-c2c[nH]c3c(NC(=O)[C@@H](C)N4CCN(C)CC4)cccc23)n1` [Example 25]: the concentration for half-maximal inhibition (IC50) was 115 nM.

As for `CC[C@H](C(=O)Nc1cccc2c(-c3nc(Nc4cn(C)nc4C)ncc3F)c[nH]c12)N1CCN(C)CC1` [Example 49, (2R)-N-(3-{2-[(1,3-dimethyl-1H-pyrazol-4-yl)amino]-5-fluoropyrimidin-4-yl}-1H-indol-7-yl)-2-(4-methylpiperazin-1-yl)butanamide], the IC50 stood at 75.1 nM.

For `COCCN1CCN([C@H](C)C(=O)Nc2cccc3c(-c4nc(Nc5cn(C)nc5OC)ncc4C)c[nH]c23)CC1` [Example 17, (2R)-2-[4-(2-methoxyethyl)piperazin-1-yl]-N-(3-{2-[(3-methoxy-1-methyl-1H-pyrazol-4-yl)amino]-5-methylpyrimidin-4-yl}-1H-indol-7-yl)propanamide], the IC50 was determined as 229 nM.

On to `COc1nn(C)cc1Nc1ncc(Br)c(-c2c[nH]c3c(NC(=O)[C@@H](C)N4CCN(C)CC4)cccc23)n1` [Example 37, (2R)-N-(3-{5-bromo-2-[(3-methoxy-1-methyl-1H-pyrazol-4-yl)amino]pyrimidin-4-yl}-1H-indol-7-yl)-2-(4-methylpiperazin-1-yl)propanamide], for which the IC50 is 94.2 nM.

`COCCN1CCN([C@H](C)C(=O)Nc2cccc3c(-c4ccnc(Nc5cn(C)nc5OC)n4)c[nH]c23)CC1` [Example 27, (2R)-2-[4-(2-methoxyethyl)piperazin-1-yl]-N-(3-{2-[(3-methoxy-1-methyl-1H-pyrazol-4-yl)amino]pyrimidin-4-yl}-1H-indol-7-yl)propanamide]: the half-maximal inhibitory concentration (IC50) was found to be 609 nM.

By IC50 is commonly meant the concentration at which inhibition is half-maximal.
